These results are taken from patent US6462017B1, “Method of reducing side effects of chemotherapy in cancer patients” (SciClone Pharmaceuticals, Inc., priority 2000, dated 2002).

Where no end group is shown, it is not given here.

The subject of data set [1] is cancer patients (lung, gastric, breast cancer) receiving chemotherapy. The data set can be described thus: Quality of life scored scale, randomized crossover open label trial of chemotherapy cycles with and without Tα1. Format: in vivo, humans. As for the experimental part: (§1) Method: A randomized crossover open label trial was performed. A total of sixty patients, twenty with lung cancer, twenty with gastric cancer and twenty with breast cancer were studied during two complete cycles of chemotherapy. All patients were randomized into two groups. In group 1, patients received chemotherapy with thymosin α1 in the first cycle, and without thymosin α1 in the second cycle. While patients in group 2 received chemotherapy without thymosin α1 in the first cycle, and with thymosin α1 in the second cycle. The patients were treated as follows:
(§2) Twenty lung cancer patients were treated with 100 mg of Etoposide IV on days 1-5 and 40 mg of Cisplatin I.V. on days 1-3 in a 21 day cycle.
(§3) Twenty gastric cancer patients were treated with 100 mg of Etoposide IV on days 1-5, 30 mg/m^2 Calcium Leucovorin I.V. on days 1-5 and 500 mg/m^2 5-Fluorouricil (5-FU) I.V. on days 1-5.
(§4) Twenty breast cancer patients were treated with 5-Fluorouricil 500 mg/m^2, Adriamycin I.V. 30 mg/m^2 I.V. on day 1 and cyclophosphamide 500 mg/m^2 I.V. on day 1.
(§5) A mild anti-emetic consisting of 20 mg metoclopamide, I.M. and 5 mg Dexamethasone I.V. were given to all patients on days 1-5. All subjects on thymosin received six injections of 1.6 mg s.c. Tα1 on each of the four days immediately preceding the chemotherapy and on days two and four following chemotherapy. All patients who have completed the two cycles of chemotherapy, then were reallocated into two cohorts, A and B. Cohort A are patients with Tα1, and Cohort B are patients without Tα1.
Analysis: Quality of life was analyzed using a scored scale for (1) loss of appetite, (2) loss of sleep, (3) fatigue, (4) reduction in daily activity, (5) decline in overall feeling, (6) depression and (7) nausea and vomiting. Maximum total score was 35 points.

Data set [2] relates to cancer patients. As to the kind of experiment: Side effects of thymosin α1 administration. It is filed as in vivo, humans. To be noted: administration in conjunction with antineoplastics.
In data set [3] the test system is VIP receptor. The note with it: in vitro; cited from earlier work.
The test system of data set [4] is cancer patients (lung, gastric, breast cancer) receiving chemotherapy. As to the kind of experiment: Nausea and vomiting classified according to WHO criteria, same trial. Format: in vivo, humans. The note with it: Cohort A with Tα1, n 54, P < 0.0005. As for the experimental part:
as §1, §2, §3, §4, §5

For “thymosin α1 (SDAAVDTSSEITTKDLKEKKEVVEEAEN; not fully specified; ends and bridges not checked; UniProt P06454 2-29, looked up) [Tα1, acidic polypeptide isolated from thymosin fraction 5, an immunomodulator that acts primarily by enhancing T-cell function]”, in data set [1] (addition of Tα1 to chemotherapy cycles compared with cycles without Tα1), the “Effect on quality of life scores” value is recorded as “significantly increases the quality of life scores”. The “Fatigue, quality of life score” value in data set [1] (cycles with Tα1 (1.6 mg s.c., six injections) vs. cycles without Tα1 3.70, p = 0.0001) was determined as 4.05 vs. 3.70 p = 0.0001. Moreover, in data set [1] (cycles with Tα1 (1.6 mg s.c., six injections) vs. cycles without Tα1 3.72, p = 0.003), the “Depression, quality of life score” value is reported as 4.01 vs. 3.72 p = 0.003. Also, the “Reduction in Daily Activity, quality of life score” value in data set [1] (cycles with Tα1 (1.6 mg s.c., six injections) vs. cycles without Tα1 3.84, p = 0.0001) is 4.12 vs. 3.84 p = 0.0001. In addition, in data set [1] (cycles with Tα1 (1.6 mg s.c., six injections) vs. cycles without Tα1 3.93, p = 0.001), the “Nausea and Vomiting, quality of life score” value turned out to be 4.29 vs. 3.93 p = 0.001. Besides, the “Decline in Overall Feeling, quality of life score” value in data set [1] (cycles with Tα1 (1.6 mg s.c., six injections) vs. cycles without Tα1 3.94, p = 0.0001) was determined as 4.32 vs. 3.94 p = 0.0001. Moreover, the “Loss of Appetite, quality of life score” value in data set [1] (cycles with Tα1 (1.6 mg s.c., six injections) vs. cycles without Tα1 3.99, p = 0.0001) stood at 4.33 vs. 3.99 p = 0.0001. For the same substance, the “Loss of Sleep, quality of life score” value in data set [1] (cycles with Tα1 (1.6 mg s.c., six injections) vs. cycles without Tα1 4.10, p = 0.002) is listed as 4.41 vs. 4.10 p = 0.002. Further, the “Side effects of thymosin α1” value in data set [2] was “does not appear to result in any side effects”. Further, the VIP receptor binding result in data set [3] is listed as “has a VIP receptor binding effect”. The “Nausea and vomiting WHO Gr. 4, number of patients” value in data set [4] (without Tα1 0) was 0. Besides, the “Nausea and vomiting WHO Grade 0, number of patients” value in data set [4] (without Tα1 4/53) was 7/55. Further, the “Nausea and vomiting WHO Gr. 3, number of patients” value in data set [4] (without Tα1 11) turned out to be 1. In addition, in data set [4] (without Tα1 19), the “Nausea and vomiting WHO Gr. 1, number of patients” value came to 33; the “Nausea and vomiting WHO Gr. 2, number of patients” value came to 13.
